Assay results published in patent US20230265151A1, “GIP/GLP1 CO-AGONIST COMPOUNDS” (priority 2020, published 2023).
Like-named read-outs stand apart in the source and are kept apart here.

What was measured:
Assay type in all cases: cell-based
[1] = molecular target: T1, hGIPR (Homo sapiens, UniProt P48546); assay: Functional cAMP formation (HTRF) in HEK-293 clonal cells expressing hGIPR, 0.1% bovine casein, without or with 1.0% human serum albumin; conditions: for Emax: percent of maximal response to GIP(1-42)NH2; for EC50: cAMP, 0.1% bovine casein (no human serum albumin), geometric mean
T1 construct: expressed in transfected cells
T1 sequence (P48546 22-466): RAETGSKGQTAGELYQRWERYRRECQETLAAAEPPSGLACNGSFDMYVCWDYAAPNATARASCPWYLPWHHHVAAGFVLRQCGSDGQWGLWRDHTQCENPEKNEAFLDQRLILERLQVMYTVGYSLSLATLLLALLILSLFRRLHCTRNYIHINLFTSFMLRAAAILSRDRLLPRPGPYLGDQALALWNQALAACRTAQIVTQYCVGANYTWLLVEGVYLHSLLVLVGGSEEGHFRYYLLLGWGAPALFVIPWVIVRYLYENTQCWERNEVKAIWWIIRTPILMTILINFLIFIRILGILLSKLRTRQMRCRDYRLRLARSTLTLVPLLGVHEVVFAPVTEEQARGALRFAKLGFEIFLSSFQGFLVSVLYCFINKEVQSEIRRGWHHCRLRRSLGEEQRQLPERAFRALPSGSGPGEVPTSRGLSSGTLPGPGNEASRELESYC
Procedure, shortened: (§1)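 Cells were stimulated with peptide for 30 min at 37° C, then intracellular cAMP was measured by competitive HTRF (665/620 nm ratio) and converted to nM using a cAMP standard curve. Relative EC50 and Emax came from four-parameter logistic fits of percent maximal response against peptide concentration.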

[2] = molecular target: T2, hGCGR (Homo sapiens, UniProt P47871); assay: Functional cAMP formation (HTRF) in HEK-293 clonal cells expressing hGCGR, 0.1% bovine casein, without or with 1.0% human serum albumin; conditions: 37° C., geometric mean
T2 construct: expressed in transfected cells
Procedure, shortened: as §1

[3] = molecular target: hGLP-1R (Homo sapiens, UniProt P43220); assay: Functional cAMP formation (HTRF) in HEK-293 clonal cells expressing hGLP-1R, 0.1% bovine casein, without or with 1.0% human serum albumin; parameters: expressed in transfected cells; conditions: for EC50: cAMP, 37° C., 0.1% bovine casein (no human serum albumin), geometric mean; for Emax: percent of maximal response to GLP-1(7-36)NH2
Procedure, shortened: as §1

T2 sequence (P47871 26-477): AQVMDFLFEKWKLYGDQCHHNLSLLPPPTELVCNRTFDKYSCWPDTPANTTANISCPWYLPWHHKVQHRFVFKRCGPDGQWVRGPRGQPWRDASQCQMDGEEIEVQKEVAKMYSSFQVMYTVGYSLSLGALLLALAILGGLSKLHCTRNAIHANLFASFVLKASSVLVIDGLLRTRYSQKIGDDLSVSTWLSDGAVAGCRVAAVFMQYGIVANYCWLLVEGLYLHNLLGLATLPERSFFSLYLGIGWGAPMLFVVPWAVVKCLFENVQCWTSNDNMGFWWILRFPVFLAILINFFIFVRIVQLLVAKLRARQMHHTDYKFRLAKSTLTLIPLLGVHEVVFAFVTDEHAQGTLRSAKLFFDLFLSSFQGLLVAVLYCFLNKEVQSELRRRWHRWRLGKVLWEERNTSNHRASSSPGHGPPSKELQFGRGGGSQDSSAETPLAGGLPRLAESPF
hGLP-1R, sequence (P43220 24-463): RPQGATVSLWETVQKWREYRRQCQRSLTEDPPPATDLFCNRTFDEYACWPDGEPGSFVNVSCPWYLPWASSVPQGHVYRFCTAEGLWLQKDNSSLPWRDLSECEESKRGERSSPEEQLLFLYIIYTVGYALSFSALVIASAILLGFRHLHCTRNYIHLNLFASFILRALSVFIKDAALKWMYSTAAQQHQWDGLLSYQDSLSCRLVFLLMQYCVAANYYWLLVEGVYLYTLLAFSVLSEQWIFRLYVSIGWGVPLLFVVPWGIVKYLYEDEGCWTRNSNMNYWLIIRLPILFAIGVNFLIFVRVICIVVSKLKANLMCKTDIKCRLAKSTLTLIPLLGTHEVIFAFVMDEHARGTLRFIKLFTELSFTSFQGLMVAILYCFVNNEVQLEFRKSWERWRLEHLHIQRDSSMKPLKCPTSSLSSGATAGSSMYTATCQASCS

| SMILES | Emax ([1]; HEK293, 0.1% bovine casein and 1.0% human serum albumin, 37° C., read-out: hGIPR Emax, % ± SEM) | EC50 ([1]; 37° C., read-out: hGIPR EC50, nM (SEM, n)) | EC50 ([2]; 0.1% bovine casein and 1.0% human serum albumin, read-out: hGCGR EC50, nM (SEM, n)) | EC50 ([2]; cAMP, 0.1% bovine casein (no human serum albumin), read-out: hGCGR EC50, nM (SEM, n)) | EC50 ([3]; read-out: hGLP-1R EC50, nM (SEM, n)) | Emax ([1]; HEK293, read-out: hGIPR Emax, % ± SEM, 0.1% bovine casein and 1.0% human serum albumin, 37° C.) | Emax ([1]; HEK293, read-out: hGIPR Emax, % ± SEM, cAMP, 37° C., 0.1% bovine casein, arithmetic mean) | EC50 ([1]; hGIPR EC50, nM (SEM, n), 37° C.) | EC50 ([2]; hGCGR EC50, nM (SEM, n), 0.1% bovine casein and 1.0% human serum albumin) | EC50 ([2]; hGCGR EC50, nM (SEM, n), cAMP, 0.1% bovine casein (no human serum albumin)) | Emax ([3]; HEK293, read-out: hGLP-1R Emax, % ± SEM, 0.1% bovine casein and 1.0% human serum albumin, 37° C.) | Emax ([3]; HEK293, read-out: hGLP-1R Emax, % ± SEM, cAMP, 37° C., 0.1% bovine casein, arithmetic mean) | EC50 ([3]; hGLP-1R EC50, nM (SEM, n)) |
| --- | --- | --- | --- | --- | --- | --- | --- | --- | --- | --- | --- | --- | --- |
| CC[C@H](C)[C@H](NC(=O)[C@H](CC(C)C)NC(=O)[C@](C)(Cc1ccc(O)cc1)NC(=O)[C@@H](CCC(=O)O)NC(=O)[C@@H](NC(=O)[C@H](Cc1ccccc1)NC(=O)[C@H](CCCCNC(=O)COCCOCCNC(=O)COCCOCCNC(=O)CC[C@H](NC(=O)CCCCCCCCCCCCC(=O)O)C(=O)O)NC(=O)C(C)(C)NC(=O)[C@H](CCC(N)=O)NC(=O)[C@H](C)NC(=O)[C@H](CCCCNC(=O)COCCOCCNC(=O)COCCOCCNC(=O)CC[C@H](NC(=O)CCCCCCCCCCCCC(=O)O)C(=O)O)NC(=O)[C@H](CCCN)NC(=O)[C@H](CC(=O)O)NC(=O)[C@H](CC(C)C)NC(=O)[C@](C)(CC(C)C)NC(=O)[C@@H](NC(=O)C(C)(C)NC(=O)[C@@H](NC(=O)[C@H](CC(=O)O)NC(=O)[C@H](CO)NC(=O)[C@@H](NC(=O)[C@](C)(Cc1ccccc1F)NC(=O)[C@@H](NC(=O)CNC(=O)[C@H](CCC(=O)O)NC(=O)C(C)(C)NC(=O)[C@@H](N)Cc1ccc(O)cc1)[C@@H](C)O)[C@@H](C)O)C(C)C)[C@@H](C)CC)[C@@H](C)CC)C(=O)N[C@@H](CCC(=O)O)C(=O)NCC(=O)NCC(=O)N1CCC[C@H]1C(=O)N[C@@H](CO)C(=O)N[C@@H](CO)C(=O)NCC(=O)N[C@@H](C)C(=O)N1CCC[C@H]1C(=O)N1CCC[C@H]1C(=O)N1CCC[C@H]1C(=O)N[C@@H](CO)C(N)=O [Example 318] | 91.4% | 0.0402 nM | > 9950 nM | > 9950 nM | 0.219 nM | – | – | – | – | – | – | – | – |
| CC[C@H](C)[C@H](NC(=O)[C@H](CC(C)C)NC(=O)[C@](C)(Cc1ccc(O)cc1)NC(=O)[C@@H](CCC(=O)O)NC(=O)[C@@H](NC(=O)[C@H](Cc1ccccc1)NC(=O)[C@H](CCCCNC(=O)COCCOCCNC(=O)COCCOCCNC(=O)CC[C@H](NC(=O)CCCCCCCCCOc1ccc(C(=O)O)cc1)C(=O)O)NC(=O)C(C)(C)NC(=O)[C@H](CCC(N)=O)NC(=O)[C@H](C)NC(=O)[C@H](CCCCNC(=O)COCCOCCNC(=O)COCCOCCNC(=O)CC[C@H](NC(=O)CCCCCCCCCOc1ccc(C(=O)O)cc1)C(=O)O)NC(=O)[C@H](CCCN)NC(=O)[C@H](CC(=O)O)NC(=O)[C@H](CC(C)C)NC(=O)[C@](C)(CC(C)C)NC(=O)[C@@H](NC(=O)C(C)(C)NC(=O)[C@@H](NC(=O)[C@H](CC(=O)O)NC(=O)[C@H](CO)NC(=O)[C@@H](NC(=O)[C@](C)(Cc1ccccc1F)NC(=O)[C@@H](NC(=O)CNC(=O)[C@H](CCC(=O)O)NC(=O)C(C)(C)NC(=O)[C@@H](N)Cc1ccc(O)cc1)[C@@H](C)O)[C@@H](C)O)C(C)C)[C@@H](C)CC)[C@@H](C)CC)C(=O)N[C@@H](CCC(=O)O)C(=O)NCC(=O)NCC(=O)N1CCC[C@H]1C(=O)N[C@@H](CO)C(=O)N[C@@H](CO)C(=O)NCC(=O)N[C@@H](C)C(=O)N1CCC[C@H]1C(=O)N1CCC[C@H]1C(=O)N1CCC[C@H]1C(=O)N[C@@H](CO)C(N)=O [Example 319] | – | – | – | – | – | 92.5% | 98.1% | 0.0196 nM | > 9950 nM | > 9950 nM | 114% | 100% | 0.18 nM |
